Consider five compounds from ChEMBL document CHEMBL1133237, “Enhanced binding of aminoglycoside dimers to a "dimerized" A-site 16S rRNA construct” (Bioorg Med Chem Lett, 2000).

Assay [1] concerns the target Nucleic Acid. As to the kind of experiment: Dissociation constant towards 16S rRNA construct A. Format: nucleic-acid assay.
For assay [2], the target named is Nucleic Acid. As to the kind of experiment: Dissociation constant towards 16S rRNA construct B. Format: nucleic-acid assay.

pKd: −log10 of the molar value.

In general, pKd refers to the negative decadic logarithm of the Kd, by convention in mol/L. Higher therefore signals a low Kd. For the compound `NCC1O[C@H](O[C@H]2[C@@H](O)[C@H](O[C@H]3[C@H](O)[C@@H](N)C[C@@H](N)[C@@H]3O[C@H]3O[C@H](CN)[C@@H](O)[C@H](O)[C@H]3N)O[C@@H]2CSCCOCCSSCCOCCSC[C@H]2O[C@@H](O[C@H]3[C@H](O)[C@@H](N)C[C@@H](N)[C@@H]3O[C@H]3O[C@H](CN)[C@@H](O)[C@H](O)[C@H]3N)[C@H](O)[C@@H]2O[C@@H]2OC(CN)[C@H](O)[C@@H](O)[C@@H]2N)[C@H](N)[C@@H](O)[C@@H]1O` (stereo not given in full), the pKd on Nucleic Acid [1] was 6.49; on Nucleic Acid [2], 7.70.

In the case of `NC[C@H]1O[C@H](O[C@H]2[C@H](O)[C@@H](O[C@H]3O[C@H](CO)[C@@H](O)[C@H](N)[C@H]3O)[C@H](N)C[C@@H]2N)[C@H](N)C[C@@H]1O` [TOBRAMYCIN], the pKd was 5.68 at Nucleic Acid [1] and 5.77 at Nucleic Acid [2].

Take `NC[C@H]1O[C@H](O[C@H]2[C@H](O)[C@@H](O[C@H]3O[C@H](CSCCOCCSSCCOCCSC[C@H]4O[C@H](O[C@@H]5[C@@H](O)[C@H](O[C@H]6O[C@H](CN)[C@@H](O)C[C@H]6N)[C@@H](N)C[C@H]5N)[C@H](O)[C@@H](N)[C@@H]4O)[C@@H](O)[C@H](N)[C@H]3O)[C@H](N)C[C@@H]2N)[C@H](N)C[C@@H]1O` [Tobramycin-Tobramycin]: the pKd at Nucleic Acid [1] was 5.75; on Nucleic Acid [2] it was 5.74.

Regarding `NC[C@@H]1O[C@H](O[C@H]2[C@@H](O)[C@H](O[C@@H]3[C@@H](O)[C@H](N)C[C@H](N)[C@H]3O[C@H]3O[C@H](CN)[C@@H](O)[C@H](O)[C@H]3N)O[C@@H]2CO)[C@H](N)[C@@H](O)[C@@H]1O` [FRAMYCETIN], the results for the pKd on Nucleic Acid [1] and on Nucleic Acid [2] were 6.36 and 6.42, respectively.

Take `NCC1O[C@H](O[C@H]2[C@@H](O)[C@H](O[C@H]3[C@H](O)[C@@H](N)C[C@@H](N)[C@@H]3O[C@H]3O[C@H](CN)[C@@H](O)[C@H](O)[C@H]3N)O[C@@H]2CSCCOCCSSCCOCCSC[C@H]2O[C@H](O[C@@H]3[C@@H](O)[C@H](O[C@H]4O[C@H](CN)[C@@H](O)C[C@H]4N)[C@@H](N)C[C@H]3N)[C@H](O)[C@@H](N)[C@@H]2O)[C@H](N)[C@@H](O)[C@@H]1O` (stereo not given in full): the pKd at Nucleic Acid [1] was 6.39; at Nucleic Acid [2], 6.54.
